In PubChem BioAssay (NCI):
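How tested: cells in 96-well plates exposed to compound for 48 hours at five concentrations. Abbreviation: GI50, concentration required for 50% inhibition of growth. At the TGI there is no net growth.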

What was measured:
Test in all cases: NCI tumour cell line growth inhibition, 48 h
MOLT-4 leukemia = test system: MOLT-4 leukemia
HL-60(TB) leukemia = test system: HL-60(TB) leukemia
IGROV1 ovarian = test system: IGROV1 ovarian
SK-OV-3 ovarian = test system: SK-OV-3 ovarian
A549 NSCLC = test system: A549 NSCLC
SN12C renal = test system: SN12C renal
OVCAR-5 ovarian = test system: OVCAR-5 ovarian
HS 578T breast = test system: HS 578T breast
NCI-H226 lung = test system: NCI-H226 lung
UO-31 renal = test system: UO-31 renal

Structure (SMILES): CC(C)COCC(CN(Cc1ccccc1)c1ccccc1)N1CCCC1 (configuration not stated)
- GI50 (MOLT-4 leukemia): 3610 nM
- TGI (MOLT-4 leukemia): 13.1 µM
- GI50 (HL-60(TB) leukemia): 3090 nM
- TGI (HL-60(TB) leukemia): 7.56 µM
- GI50 (IGROV1 ovarian): 3180 nM
- TGI (IGROV1 ovarian): 15 µM
- GI50 (SK-OV-3 ovarian): 3.17 µM
- TGI (SK-OV-3 ovarian): 13.6 µM
- GI50 (A549 NSCLC): 3.48 µM
- TGI (A549 NSCLC): 13.5 µM
- GI50 (SN12C renal): 3.48 µM
- TGI (SN12C renal): 15.4 µM
- GI50 (OVCAR-5 ovarian): 3.93 µM
- TGI (OVCAR-5 ovarian): 15.8 µM
- GI50 (HS 578T breast): 3600 nM
- TGI (HS 578T breast): 18.2 µM
- GI50 (NCI-H226 lung): 2.28 µM
- TGI (NCI-H226 lung): 9.48 µM
- GI50 (UO-31 renal): 1960 nM
- TGI (UO-31 renal): 13.1 µM

Structure (SMILES): CNCCNc1c2c(c(NCCNC)c3[nH]ccc13)C(=O)c1ccccc1C2=O
- GI50 (MOLT-4 leukemia): < 26.1 nM
- GI50 (HL-60(TB) leukemia): 195 nM
- TGI (HL-60(TB) leukemia): 0.838 µM
- GI50 (IGROV1 ovarian): 111 nM
- TGI (IGROV1 ovarian): 0.686 µM
- GI50 (SK-OV-3 ovarian): 5.67 µM
- TGI (SK-OV-3 ovarian): 13.3 µM
- GI50 (A549 NSCLC): 0.0904 µM
- TGI (A549 NSCLC): 0.427 µM
- GI50 (SN12C renal): < 0.0257 µM
- TGI (SN12C renal): 0.097 µM
- GI50 (OVCAR-5 ovarian): 0.536 µM
- TGI (OVCAR-5 ovarian): 1.93 µM
- GI50 (HS 578T breast): 565 nM
- TGI (HS 578T breast): 1.65 µM
- GI50 (NCI-H226 lung): 0.215 µM
- TGI (NCI-H226 lung): 1.84 µM
- GI50 (UO-31 renal): 201 nM
- TGI (UO-31 renal): 0.818 µM

Structure (SMILES): CC(NCCC(=O)N(CCC(=O)N(CCC(=O)N(CCC(=O)N(CCC(=O)N(CCC(=O)N(CCC(=O)N(CCC(=O)N(CCC(=O)N(CCC(=O)O)[C@H](C)c1ccccc1)[C@H](C)c1ccccc1)[C@H](C)c1ccccc1)[C@H](C)c1ccccc1)[C@H](C)c1ccccc1)[C@H](C)c1ccccc1)[C@H](C)c1ccccc1)[C@H](C)c1ccccc1)[C@H](C)c1ccccc1)c1ccccc1 (some centres not stated)
- GI50 (MOLT-4 leukemia): 1610 nM
- TGI (MOLT-4 leukemia): 6.7 µM
- GI50 (HL-60(TB) leukemia): 2440 nM
- TGI (HL-60(TB) leukemia): 13.9 µM
- GI50 (IGROV1 ovarian): 872 nM
- TGI (IGROV1 ovarian): 15 µM
- GI50 (SK-OV-3 ovarian): 10.6 µM
- TGI (SK-OV-3 ovarian): > 53 µM
- GI50 (A549 NSCLC): 3.56 µM
- TGI (A549 NSCLC): > 75 µM
- GI50 (SN12C renal): 3.66 µM
- TGI (SN12C renal): > 75 µM
- GI50 (OVCAR-5 ovarian): > 18.8 µM
- TGI (OVCAR-5 ovarian): > 75 µM
- GI50 (HS 578T breast): 2540 nM
- TGI (HS 578T breast): > 57.3 µM
- GI50 (NCI-H226 lung): 3.62 µM
- TGI (NCI-H226 lung): 20.2 µM
- GI50 (UO-31 renal): 3550 nM
- TGI (UO-31 renal): > 75 µM

Structure (SMILES): COc1ccc(S(=O)(=O)Nc2cc(/C=C\c3cc(OC)c(OC)c(OC)c3)ccc2OC)cc1
- GI50 (MOLT-4 leukemia): 388 nM
- TGI (MOLT-4 leukemia): > 100 µM
- GI50 (HL-60(TB) leukemia): 195 nM
- TGI (HL-60(TB) leukemia): 0.681 µM
- GI50 (IGROV1 ovarian): 166 nM
- TGI (IGROV1 ovarian): > 100 µM
- GI50 (SK-OV-3 ovarian): 0.0963 µM
- TGI (SK-OV-3 ovarian): 38.3 µM
- GI50 (A549 NSCLC): 0.159 µM
- TGI (A549 NSCLC): > 100 µM
- GI50 (SN12C renal): 0.682 µM
- TGI (SN12C renal): > 100 µM
- GI50 (OVCAR-5 ovarian): 0.323 µM
- TGI (OVCAR-5 ovarian): > 100 µM
- GI50 (HS 578T breast): 226 nM
- TGI (HS 578T breast): > 100 µM
- GI50 (NCI-H226 lung): 12.8 µM
- TGI (NCI-H226 lung): > 100 µM
- GI50 (UO-31 renal): 131 nM
- TGI (UO-31 renal): 7.48 µM

Structure (SMILES): CCCCCCCCCCC(C(O)c1ccccc1)N1CCCCC1 (configuration not stated)
- GI50 (MOLT-4 leukemia): 2230 nM
- TGI (MOLT-4 leukemia): 5.86 µM
- GI50 (HL-60(TB) leukemia): 1960 nM
- TGI (HL-60(TB) leukemia): 4.25 µM
- GI50 (IGROV1 ovarian): 1500 nM
- TGI (IGROV1 ovarian): 3.15 µM
- GI50 (SK-OV-3 ovarian): 2.59 µM
- TGI (SK-OV-3 ovarian): 7.82 µM
- GI50 (A549 NSCLC): 4.61 µM
- TGI (A549 NSCLC): 17.1 µM
- GI50 (SN12C renal): 2.55 µM
- TGI (SN12C renal): 10.4 µM
- GI50 (OVCAR-5 ovarian): 2.47 µM
- TGI (OVCAR-5 ovarian): 6.85 µM
- GI50 (HS 578T breast): 2020 nM
- TGI (HS 578T breast): 4.52 µM
- GI50 (NCI-H226 lung): 2.91 µM
- TGI (NCI-H226 lung): 12.4 µM
- GI50 (UO-31 renal): 1240 nM
- TGI (UO-31 renal): 2.84 µM

Structure (SMILES): CN(C)CCCN1c2ccccc2C(C)(C)c2ccccc21
- TGI (MOLT-4 leukemia): 26.6 µM
- TGI (HL-60(TB) leukemia): 33.6 µM
- TGI (IGROV1 ovarian): 31.7 µM
- TGI (SK-OV-3 ovarian): 29.1 µM
- TGI (A549 NSCLC): 30.7 µM
- TGI (SN12C renal): 27.9 µM
- TGI (OVCAR-5 ovarian): 27.2 µM
- TGI (HS 578T breast): 43.3 µM
- TGI (NCI-H226 lung): 29.7 µM
- TGI (UO-31 renal): 27.4 µM

Structure (SMILES): Clc1ccc2nnnn2n1
- GI50 (MOLT-4 leukemia): 3260 nM
- TGI (MOLT-4 leukemia): 44.5 µM
- GI50 (HL-60(TB) leukemia): 1940 nM
- TGI (HL-60(TB) leukemia): 5.14 µM
- GI50 (IGROV1 ovarian): 4050 nM
- TGI (IGROV1 ovarian): 50.1 µM
- GI50 (SK-OV-3 ovarian): 10.5 µM
- TGI (SK-OV-3 ovarian): 92.9 µM
- GI50 (A549 NSCLC): 13.9 µM
- TGI (A549 NSCLC): > 100 µM
- GI50 (SN12C renal): 4.7 µM
- TGI (SN12C renal): > 100 µM
- GI50 (OVCAR-5 ovarian): 4.7 µM
- TGI (OVCAR-5 ovarian): 20.5 µM
- GI50 (HS 578T breast): 21800 nM
- TGI (HS 578T breast): > 100 µM
- GI50 (NCI-H226 lung): 4.84 µM
- TGI (NCI-H226 lung): 35.9 µM
- GI50 (UO-31 renal): 3520 nM
- TGI (UO-31 renal): > 100 µM

Structure (SMILES): C=C(C)[C@@H]1CC[C@]2(C)[C@H](CC=C3[C@@H]4[C@@H](C)[C@H](C)CC[C@]4(C(N)=O)CC[C@]32C)[C@@]1(C)CCC#N
- GI50 (MOLT-4 leukemia): 2920 nM
- TGI (MOLT-4 leukemia): 21 µM
- GI50 (HL-60(TB) leukemia): 2350 nM
- TGI (HL-60(TB) leukemia): 6.03 µM
- GI50 (IGROV1 ovarian): 5580 nM
- TGI (IGROV1 ovarian): > 100 µM
- GI50 (SK-OV-3 ovarian): 7.31 µM
- TGI (SK-OV-3 ovarian): > 100 µM
- GI50 (A549 NSCLC): 3.35 µM
- TGI (A549 NSCLC): > 100 µM
- GI50 (SN12C renal): 3.36 µM
- TGI (SN12C renal): 10.7 µM
- GI50 (OVCAR-5 ovarian): 5.75 µM
- TGI (OVCAR-5 ovarian): > 100 µM
- GI50 (HS 578T breast): 11600 nM
- TGI (HS 578T breast): 88.8 µM
- GI50 (NCI-H226 lung): 5.09 µM
- TGI (NCI-H226 lung): 27 µM
- GI50 (UO-31 renal): 3460 nM
- TGI (UO-31 renal): 26.1 µM

Structure (SMILES): COc1cc(-n2cc(-c3ccc(Cl)cc3)nc2SCc2cccc(C#N)c2)cc(OC)c1OC
- GI50 (MOLT-4 leukemia): 37500 nM
- TGI (MOLT-4 leukemia): > 100 µM
- GI50 (HL-60(TB) leukemia): > 100000 nM
- TGI (HL-60(TB) leukemia): > 100 µM
- GI50 (IGROV1 ovarian): 54900 nM
- TGI (IGROV1 ovarian): > 100 µM
- GI50 (SK-OV-3 ovarian): 71.5 µM
- TGI (SK-OV-3 ovarian): > 100 µM
- GI50 (A549 NSCLC): > 100 µM
- TGI (A549 NSCLC): > 100 µM
- GI50 (SN12C renal): 46 µM
- TGI (SN12C renal): > 100 µM
- GI50 (OVCAR-5 ovarian): > 100 µM
- TGI (OVCAR-5 ovarian): > 100 µM
- GI50 (HS 578T breast): 34200 nM
- TGI (HS 578T breast): > 100 µM
- GI50 (NCI-H226 lung): 41.3 µM
- TGI (NCI-H226 lung): > 100 µM
- GI50 (UO-31 renal): 60400 nM
- TGI (UO-31 renal): > 100 µM

Structure (SMILES): COc1ccc(/C=C(\C#N)n2nnc3ccccc32)cc1
- GI50 (MOLT-4 leukemia): 542 nM
- TGI (MOLT-4 leukemia): > 44.9 µM
- GI50 (HL-60(TB) leukemia): 126 nM
- GI50 (IGROV1 ovarian): 158 nM
- TGI (IGROV1 ovarian): 8.16 µM
- GI50 (SK-OV-3 ovarian): 0.64 µM
- TGI (SK-OV-3 ovarian): > 40.1 µM
- GI50 (A549 NSCLC): 0.235 µM
- TGI (A549 NSCLC): > 100 µM
- GI50 (SN12C renal): 0.832 µM
- TGI (SN12C renal): 26.6 µM
- GI50 (OVCAR-5 ovarian): 0.463 µM
- GI50 (HS 578T breast): 396 nM
- TGI (HS 578T breast): > 100 µM
- GI50 (NCI-H226 lung): 1.11 µM
- TGI (NCI-H226 lung): 21.2 µM
- GI50 (UO-31 renal): 1010 nM
- TGI (UO-31 renal): 13 µM

Structure (SMILES): O=C1C2C(c3ccccc3)NC(c3ccccc3)C1C(c1ccccc1)NC2c1ccccc1 (configuration not stated)
- TGI (MOLT-4 leukemia): > 100 µM
- TGI (HL-60(TB) leukemia): > 100 µM
- TGI (IGROV1 ovarian): > 100 µM
- TGI (SK-OV-3 ovarian): > 100 µM
- TGI (A549 NSCLC): > 100 µM
- TGI (SN12C renal): > 100 µM
- TGI (OVCAR-5 ovarian): > 100 µM
- TGI (HS 578T breast): > 100 µM
- TGI (NCI-H226 lung): > 100 µM
- TGI (UO-31 renal): > 100 µM
